Results reported in article PMC10054477, “Design, Synthesis, and Biological Evaluation of Sulfonamide Methoxypyridine Derivatives as Novel PI3K/mTOR Dual Inhibitors” (Pharmaceuticals, 2023).

Tests used:
[1] = tested on: phosphorylation of AKT in HCT-116 cells; test: Western blot of AKT phosphorylation; assay type: cell-based; conditions: 24 h
Method: HCT-116 cells were cultured in 100 mm culture dish to 70~80%, and treated with compound 22c at a specified concentration for 24 h. Then, the cells were scraped off with cell scraper, collected into a precooled 1.5 mL centrifuge tube, and lysed with RIPA buffer (Cwbio, Taizhou, China) containing PMSF (1 mM), NaF (1 mM), Na3VO4 (1 mM). The cells were lysed at 4 °C for 30 min, and the concentration of protein was determined by the BCA assay kit (Meilunbio, Dalian, China). Then the protein samples (40 μg) were used to conduct SDS-PAGE electrophoresis (Electrophoresis equipment: BIO-RAD, Hercules, CA, USA; Prefabricated-gel: ACE, Shanghai, China). After electrophoresis, the protein was transferred to PVDF membranes ([…], Millipore, USA). It was sealed with 5% non-fat milk for 1.5 h, washed with TBST for 4 times, and incubated with primary antibody at 4 °C overnight. Then, membranes were recovered to room temperature, washed with TBST for 4 times and incubated with secondary antibody (Huabio, Hangzhou, China) at room temperature for 1.5 h. After incubating, the membranes were washed with TBST for 4 times, visualized with an Amersham Imager 680 (GE, Windsor, CT, USA) through the enhanced ECL detection kit (Meilunbio, Dalian, China). […]

PI3Kα = target: T1, PI3Kα (Homo sapiens, UniProt P42336); test: ADP-Glo kinase assay, PI3Kα enzyme inhibition; assay type: biochemical; conditions: for inhibition at 0.001 µM: at 1 nM
T1 construct: purchased SignalChem P27-122DH
T1 sequence (P42336 whole entry): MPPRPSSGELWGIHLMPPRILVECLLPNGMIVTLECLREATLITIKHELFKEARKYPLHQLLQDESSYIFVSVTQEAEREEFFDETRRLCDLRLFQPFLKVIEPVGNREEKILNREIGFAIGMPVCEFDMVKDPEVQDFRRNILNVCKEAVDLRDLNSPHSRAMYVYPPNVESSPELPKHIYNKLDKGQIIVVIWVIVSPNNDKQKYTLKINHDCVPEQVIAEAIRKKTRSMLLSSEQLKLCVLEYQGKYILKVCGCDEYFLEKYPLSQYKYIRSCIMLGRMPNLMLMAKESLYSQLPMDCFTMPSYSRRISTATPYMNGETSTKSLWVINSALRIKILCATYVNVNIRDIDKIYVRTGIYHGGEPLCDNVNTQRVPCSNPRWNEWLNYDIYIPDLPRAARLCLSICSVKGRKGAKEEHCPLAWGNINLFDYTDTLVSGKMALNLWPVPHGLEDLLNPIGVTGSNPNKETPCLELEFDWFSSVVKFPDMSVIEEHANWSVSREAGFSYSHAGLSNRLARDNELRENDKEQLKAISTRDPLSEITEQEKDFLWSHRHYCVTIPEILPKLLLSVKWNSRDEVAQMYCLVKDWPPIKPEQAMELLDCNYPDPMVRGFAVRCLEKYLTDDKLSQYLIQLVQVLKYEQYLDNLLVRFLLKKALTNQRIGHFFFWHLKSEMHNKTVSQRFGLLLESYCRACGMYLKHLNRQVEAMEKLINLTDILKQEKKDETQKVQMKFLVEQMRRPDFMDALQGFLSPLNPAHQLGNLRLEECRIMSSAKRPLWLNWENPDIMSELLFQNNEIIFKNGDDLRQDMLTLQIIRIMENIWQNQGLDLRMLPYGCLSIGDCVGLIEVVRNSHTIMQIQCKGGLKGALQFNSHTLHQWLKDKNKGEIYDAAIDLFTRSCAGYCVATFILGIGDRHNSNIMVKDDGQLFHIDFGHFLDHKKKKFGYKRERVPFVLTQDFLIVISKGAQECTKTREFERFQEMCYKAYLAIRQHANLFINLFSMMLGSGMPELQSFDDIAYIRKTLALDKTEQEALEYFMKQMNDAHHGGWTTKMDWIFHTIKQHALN
T1 sequence (P27986 whole entry partner): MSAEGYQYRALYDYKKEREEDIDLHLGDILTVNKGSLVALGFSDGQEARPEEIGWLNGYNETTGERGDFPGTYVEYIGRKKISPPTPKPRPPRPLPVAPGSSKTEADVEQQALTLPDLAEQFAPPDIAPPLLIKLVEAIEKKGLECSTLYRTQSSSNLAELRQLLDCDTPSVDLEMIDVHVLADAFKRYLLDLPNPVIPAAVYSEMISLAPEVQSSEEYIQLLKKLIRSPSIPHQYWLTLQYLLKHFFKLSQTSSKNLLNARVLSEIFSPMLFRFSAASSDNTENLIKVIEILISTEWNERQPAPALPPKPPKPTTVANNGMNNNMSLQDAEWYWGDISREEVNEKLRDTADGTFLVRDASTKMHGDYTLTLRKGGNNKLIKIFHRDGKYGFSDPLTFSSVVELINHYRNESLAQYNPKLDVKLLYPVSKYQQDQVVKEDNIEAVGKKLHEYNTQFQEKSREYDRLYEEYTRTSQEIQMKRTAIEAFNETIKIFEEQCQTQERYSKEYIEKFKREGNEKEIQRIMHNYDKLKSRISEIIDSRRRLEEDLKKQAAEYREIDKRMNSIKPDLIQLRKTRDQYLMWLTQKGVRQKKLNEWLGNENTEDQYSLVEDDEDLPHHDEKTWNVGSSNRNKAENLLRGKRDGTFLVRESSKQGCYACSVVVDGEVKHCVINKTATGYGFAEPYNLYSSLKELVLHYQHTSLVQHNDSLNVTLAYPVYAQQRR
Method: The enzymatic inhibitory assays of all target compounds against PI3Kα were performed with the ADP-Glo assay (Promega, Madison, WI, USA, catalog No. V9102/3). Briefly, compounds were continuously diluted to a certain concentration. […] The mixture was added to a 96-well plate and incubated in a dark place at ambient temperature for 40 min. Then, the kinase reaction was stopped by adding of ADP-Glo reagent and the plate was incubated again at ambient temperature for another 40 min. The kinase detection reagent was added and the signal was collected via PerkinElmer Envision plate reader (PE, Boston, MA, USA).

HCT-116 cells [2] = test: Flow cytometry analysis of apoptosis via Annexin V-FITC/PI staining; assay type: cell-based; conditions: 24 h
Method: (§1) Hoechst 33342/PI staining was used to detect cell survival and apoptosis, and flow cytometry (FACS Verse, BD, Piscataway, NJ, USA) was used to measure cell cycle and survival. Briefly, HCT-116 cells were seeded in 6-well plates and cultured with 22c at different concentrations for 24 h. As for the Hoechst 33342/PI staining assay, staining buffer with Hoechst 33342/PI was added into each plate and incubated at 4 °C for 30 min. After washing with PBS, the stained cells were observed by fluorescence microscope (IX73, Olympus, Tokyo, Japan). As for detection of cell apoptosis by flow cytometry, cells were stained with Annexin V-FITC/PI. As for cell cycle assay, the cells were fixed with 70% ethanol at 4 °C overnight, and stained with PI/RNase solution for 30 min at 37 °C. All assays were measured by flow cytometry and analyzed by Flowjo 7.6.

MCF-7 cells = test: CCK-8 cell viability assay, MCF-7; assay type: cell-based; conditions: Homo sapiens, MCF7, 72 h, mean (n = 3)
Method: (§2) MCF-7 and HCT-116 cells were purchased from the Meilunbio Biotechnology Co., Ltd. (Dalian, China). Cells were cultured at 37 °C with 5% CO2, using DMEM or RPMI 1640 medium (Meilunbio, Dalian, China) with 10% (v/v) fetal bovine serum (Gibco, San Diego, CA, USA) and 1% (v/v) penicillin and streptomycin (Meilunbio, Dalian, China). CCK-8 assay was used to determine the inhibitory effect in vitro. In short, cells were incubated into 96-well plates at the rate of 5000 cells per well. After 24 h of incubation, 100 μL medium was added, which contained a specific concentration of the test compound. After 72 h, 10 μL CCK-8 regent was added and the plate was incubated at 37 °C, 5% CO2 for 1 h. The optical density of each hole at 450 nm was read by a BioTek TS-800 microplate reader. GraphPad Prism 9.3.1 software was used to calculate the IC50 value.

HCT-116 cells [3] = test: CCK-8 cell viability assay, HCT-116; assay type: cell-based; conditions: Homo sapiens, mean (n = 3)
Method: as §2

HCT-116 cells [4] = test: Flow cytometry analysis of cell cycle via PI staining; assay type: cell-based; conditions: 24 h, dose-dependent
Method: as §1

mTOR = target: T2, mTOR (Homo sapiens, UniProt P42345); test: LANCE Ultra assay, mTOR inhibition; assay type: biochemical; conditions: mean (n = 2)
T2 construct: purchased Millipore 14-770
T2 sequence (P42345 1362-2549 limits assumed): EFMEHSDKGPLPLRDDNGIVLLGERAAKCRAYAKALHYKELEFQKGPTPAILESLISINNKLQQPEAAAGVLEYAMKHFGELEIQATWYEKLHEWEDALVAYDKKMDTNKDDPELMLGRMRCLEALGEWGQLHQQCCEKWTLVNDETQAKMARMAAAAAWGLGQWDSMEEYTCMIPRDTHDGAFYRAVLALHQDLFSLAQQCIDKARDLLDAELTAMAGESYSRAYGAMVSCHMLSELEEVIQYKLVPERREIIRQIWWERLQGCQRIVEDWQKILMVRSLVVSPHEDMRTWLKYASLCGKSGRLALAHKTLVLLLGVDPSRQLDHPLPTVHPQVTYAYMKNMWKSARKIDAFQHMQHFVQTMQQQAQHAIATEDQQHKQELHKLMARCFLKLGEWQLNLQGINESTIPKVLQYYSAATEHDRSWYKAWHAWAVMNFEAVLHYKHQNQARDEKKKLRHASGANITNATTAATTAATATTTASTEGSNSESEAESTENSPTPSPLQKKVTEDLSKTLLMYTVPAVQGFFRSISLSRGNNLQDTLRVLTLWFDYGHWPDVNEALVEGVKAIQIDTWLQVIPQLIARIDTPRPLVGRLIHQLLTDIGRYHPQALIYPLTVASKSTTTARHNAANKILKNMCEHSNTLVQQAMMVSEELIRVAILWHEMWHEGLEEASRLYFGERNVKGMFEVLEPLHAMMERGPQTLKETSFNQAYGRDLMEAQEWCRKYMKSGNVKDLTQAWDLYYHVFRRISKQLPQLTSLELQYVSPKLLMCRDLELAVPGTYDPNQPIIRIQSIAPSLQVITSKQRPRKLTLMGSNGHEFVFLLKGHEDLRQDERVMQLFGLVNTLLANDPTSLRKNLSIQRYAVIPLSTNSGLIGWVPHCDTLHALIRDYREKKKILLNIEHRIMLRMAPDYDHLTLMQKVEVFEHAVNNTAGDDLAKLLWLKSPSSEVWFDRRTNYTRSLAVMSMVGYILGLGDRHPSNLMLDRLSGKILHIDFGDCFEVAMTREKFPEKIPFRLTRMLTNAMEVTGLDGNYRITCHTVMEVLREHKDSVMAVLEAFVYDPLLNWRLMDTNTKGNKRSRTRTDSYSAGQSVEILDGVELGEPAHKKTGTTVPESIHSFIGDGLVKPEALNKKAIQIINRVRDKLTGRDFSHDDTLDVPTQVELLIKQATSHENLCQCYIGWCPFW
Method: The inhibitory activity of 22c on mTOR was determined by LANCE Ultra assay. In short, to a solution of kinase buffer, compound solution, ULight-4E-BP1 (Thr37/46) peptide substrate (PE, Catalog No. TRF0128-M), ATP, and mTOR protein (Millipore, Burlington, MA, USA, Catalog No. 14-770) were added. It was transferred to a 384-well plate and incubated at room temperature for 30 min. The LANCE detection buffer was added, which contained EDTA and Eu-antiphos-4E-BP1 (Thr37/46) antibody (PE, catalog number TRF0216-M). The plate was balanced at ambient temperature for 1 h, and the signal was detected via PerkinElmer Envision plate reader.

HCT-116 cells [5] = test: Hoechst 33342/PI staining of survival and apoptosis; assay type: cell-based; conditions: 24 h
Method: as §1

PI3K = tested on: PI3K; design: method as in PMID 21388141; conditions: read-out: enzyme inhibition; cited from earlier work
PI3Kγ = target: PI3Kγ; design: method as in PMID 30582807; conditions: cited from earlier work

SMILES: COc1ncc(-c2ccc3nccc(-c4ncc(C(=O)NC(C)C)o4)c3c2)cc1NS(=O)(=O)c1ccc(F)cc1F [22c, 2-(6-(5-((2,4-difluorophenyl)sulfonamido)-6-methoxypyridin-3-yl)quinolin-4-yl)-N-isopropyloxazole-5-carboxamide]
- phosphorylation of AKT (Western blot) [1]: could block the phosphorylation process of AKT at low concentrations
- inhibition at 0.001 µM (PI3Kα; Table 3): 82%
- IC50 (PI3Kα; mean (n = 2)): 0.22 nM
- Q1 of Annexin V-FITC/PI plot (HCT-116 cells [2]; 0.25 μM): 1.95
- Q2 of Annexin V-FITC/PI plot (HCT-116 cells [2]; 0.25 μM): 14.1
- Q3 of Annexin V-FITC/PI plot (HCT-116 cells [2]; 0.25 μM): 0.080
- Q4 of Annexin V-FITC/PI plot (HCT-116 cells [2]; 0.25 μM): 83.9
- Q1 of Annexin V-FITC/PI plot (HCT-116 cells [2]; 1 μM): 3.13
- Q2 of Annexin V-FITC/PI plot (HCT-116 cells [2]; 1 μM): 38.0
- Q3 of Annexin V-FITC/PI plot (HCT-116 cells [2]; 1 μM): 0.14
- Q4 of Annexin V-FITC/PI plot (HCT-116 cells [2]; 1 μM): 58.7
- Q1 of Annexin V-FITC/PI plot (HCT-116 cells [2]; 4 μM): 2.69
- Q2 of Annexin V-FITC/PI plot (HCT-116 cells [2]; 4 μM): 58.3
- Q3 of Annexin V-FITC/PI plot (HCT-116 cells [2]; 4 μM): 0.17
- Q4 of Annexin V-FITC/PI plot (HCT-116 cells [2]; 4 μM): 38.9
- apoptosis (flow cytometry), in words (HCT-116 cells [2]; dose-dependent): induce apoptosis
- IC50 (MCF-7 cells; Table 3): 0.13 ± 0.03 µM
- IC50 (HCT-116 cells [3]; Table 3, 72 h): 0.02 ± 0.01 µM
- cell cycle arrest (HCT-116 cells [4]): inhibited the cell cycle in G0/G1 phase
- IC50 (mTOR): 23 nM
- apoptosis and necrosis (Hoechst33342/PI staining) (HCT-116 cells [5]): could significantly affect apoptosis and necrosis of HCT-116 cells

SMILES: CCOC(=O)c1cnc2ccc(-c3cncc(NS(=O)(=O)c4ccccc4)c3)cn12 [HS-173, reference compound]
- IC50 (MCF-7 cells; Table 1): 1.76 ± 0.44 µM
- IC50 (HCT-116 cells [3]; Table 1, 72 h): 0.19 ± 0.05 µM
- IC50 (mTOR): 110 nM

SMILES: COc1ncc(-c2ccc3nccc(-c4ccnnc4)c3c2)cc1NS(=O)(=O)c1ccc(F)cc1F [Omipalisib, reference compound]
- inhibition at 0.001 µM (PI3Kα; Table 1): 89%
- IC50 (MCF-7 cells; Table 1): > 4 µM
- IC50 (HCT-116 cells [3]; Table 1, 72 h): 0.02 ± 0.01 µM
